From PubChem BioAssay AID330 (DTP/NCI, 2004)
Values joined by “and” are separate entries in the source; they are usually repeats but may differ in a detail not shown here. Identical values can stand only once. Toxic doses and inconclusive results are not listed.

Tested on: P388 leukemia ip, CD2F1 mice, survival T/C
Assay: NCI In Vivo Anticancer Drug Screen. Data for tumor model P388 Leukemia (intraperitoneal) in CD2F1 (CDF1) mice
Settings: endpoint: median survival time, higher = longer survival
Method in brief: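 Mice carrying the transplanted tumor received test compound or vehicle. Survival was recorded in each group, and the value is the treated-group measurement divided by that of the vehicle-treated control group.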

## COc1cc(NS(C)(=O)=O)ccc1Nc1c2ccccc2nc2ccccc12
dose: 0.25 mg/kg/injection, schedule: Q01DX009 (ip), vehicle: other
  T/C: 119 % of control
dose: 0.52 mg/kg/injection, schedule: Q01DX009 (ip), vehicle: other
  T/C: 151 % of control
dose: 0.86 mg/kg/injection, schedule: Q01DX009 (ip), vehicle: other
  T/C: 163 % of control
dose: 1.0 mg/kg/injection, schedule: Q01DX005 (iv), vehicle: other
  T/C: 120 % of control
dose: 1.0 mg/kg/injection, schedule: Q01DX009 (ip), vehicle: other
  T/C: 157 % of control
dose: 1.0 mg/kg/injection, schedule: Q04DX003 (ip), vehicle: other
  T/C: 118 % of control
dose: 1.44 mg/kg/injection, schedule: Q01DX009 (ip), vehicle: other
  T/C: 173 % of control
dose: 1.5 mg/kg/injection, schedule: Q04DX003 (ip), vehicle: clinical formulation
  T/C: 152 % of control
dose: 2.0 mg/kg/injection, schedule: Q01DX005 (ip), vehicle: other
  T/C: 153 % of control and 163 % of control
dose: 2.0 mg/kg/injection, schedule: Q01DX005 (oral), vehicle: other
  T/C: 111 % of control
dose: 2.0 mg/kg/injection, schedule: Q01DX009 (ip), vehicle: other
  T/C: 175 % of control and 195 % of control
dose: 2.0 mg/kg/injection, schedule: Q04DX003 (oral), vehicle: other
  T/C: 111 % of control
dose: 2.4 mg/kg/injection, schedule: Q01DX009 (ip), vehicle: other
  T/C: 209 % of control
dose: 2.5 mg/kg/injection, schedule: Q04DX002 (ip), vehicle: clinical formulation
  T/C: 153 % of control and 173 % of control
dose: 2.5 mg/kg/injection, schedule: Q04DX003 (ip), vehicle: other
  T/C: 155 % of control
dose: 2.59 mg/kg/injection, schedule: Q04DX003 (ip), vehicle: clinical formulation
  T/C: 167 % of control
dose: 2.59 mg/kg/injection, schedule: Q04DX003 (ip), vehicle: saline
  T/C: 168 % of control
dose: 2.59 mg/kg/injection, schedule: Q04DX003 (ip), vehicle: water
  T/C: 161 % of control and 163 % of control and 179 % of control
dose: 2.6 mg/kg/injection, schedule: Q04DX002 (ip), vehicle: other
  T/C: 160 % of control
dose: 3.0 mg/kg/injection, schedule: Q04DX003 (ip), vehicle: clinical formulation
  T/C: 160 % of control
dose: 4.0 mg/kg/injection, schedule: Q01DX005 (ip), vehicle: other
  T/C: 183 % of control and 207 % of control
dose: 4.0 mg/kg/injection, schedule: Q01DX005 (iv), vehicle: other
  T/C: 154 % of control
dose: 4.0 mg/kg/injection, schedule: Q01DX005 (oral), vehicle: other
  T/C: 120 % of control
dose: 4.0 mg/kg/injection, schedule: Q01DX009 (ip), vehicle: other
  T/C: 192 % of control and 223 % of control and 90 % of control
dose: 4.0 mg/kg/injection, schedule: Q04DX003 (ip), vehicle: other
  T/C: 163 % of control
dose: 4.0 mg/kg/injection, schedule: Q04DX003 (oral), vehicle: other
  T/C: 119 % of control
dose: 4.3 mg/kg/injection, schedule: Q04DX002 (ip), vehicle: other
  T/C: 179 % of control
dose: 4.32 mg/kg/injection, schedule: Q04DX003 (ip), vehicle: clinical formulation
  T/C: 173 % of control
dose: 4.32 mg/kg/injection, schedule: Q04DX003 (ip), vehicle: saline
  T/C: 175 % of control
dose: 4.32 mg/kg/injection, schedule: Q04DX003 (ip), vehicle: water
  T/C: 169 % of control and 176 % of control and 180 % of control
dose: 5.0 mg/kg/injection, schedule: Q04DX002 (ip), vehicle: clinical formulation
  T/C: 172 % of control and 186 % of control
dose: 5.0 mg/kg/injection, schedule: Q04DX003 (ip), vehicle: other
  T/C: 156 % of control and 161 % of control and 193 % of control
dose: 6.0 mg/kg/injection, schedule: Q04DX003 (ip), vehicle: clinical formulation
  T/C: 203 % of control
dose: 6.0 mg/kg/injection, schedule: Q04DX003 (ip), vehicle: saline with Tween-80
  T/C: 175 % of control
dose: 6.25 mg/kg/injection, schedule: Q04DX002 (oral), vehicle: other
  T/C: 101 % of control and 106 % of control
dose: 7.2 mg/kg/injection, schedule: Q04DX003 (ip), vehicle: clinical formulation
  T/C: 216 % of control
dose: 7.2 mg/kg/injection, schedule: Q04DX003 (ip), vehicle: saline
  T/C: 214 % of control
dose: 7.2 mg/kg/injection, schedule: Q04DX003 (ip), vehicle: water
  T/C: 197 % of control and 204 % of control and 219 % of control
dose: 8.0 mg/kg/injection, schedule: Q01DX005 (ip), vehicle: other
  T/C: 193 % of control
dose: 8.0 mg/kg/injection, schedule: Q04DX003 (ip), vehicle: other
  T/C: 158 % of control and 204 % of control
dose: 8.0 mg/kg/injection, schedule: Q04DX003 (ip), vehicle: saline with Tween-80
  T/C: 182 % of control and 235 % of control
dose: 8.0 mg/kg/injection, schedule: Q04DX003 (oral), vehicle: other
  T/C: 123 % of control
dose: 10.0 mg/kg/injection, schedule: Q04DX002 (ip), vehicle: clinical formulation
  T/C: 216 % of control and 238 % of control
dose: 10.0 mg/kg/injection, schedule: Q04DX003 (ip), vehicle: other
  T/C: 182 % of control and 204 % of control and 245 % of control
dose: 10.8 mg/kg/injection, schedule: Q01DX001 (ip), vehicle: other
  T/C: 153 % of control
dose: 12.0 mg/kg/injection, schedule: Q04DX003 (ip), vehicle: clinical formulation
  T/C: 207 % of control and 228 % of control
dose: 12.0 mg/kg/injection, schedule: Q04DX003 (ip), vehicle: saline
  T/C: 261 % of control
dose: 12.0 mg/kg/injection, schedule: Q04DX003 (ip), vehicle: water
  T/C: 230 % of control and 231 % of control
dose: 12.5 mg/kg/injection, schedule: Q04DX002 (oral), vehicle: other
  T/C: 107 % of control and 117 % of control
dose: 16.0 mg/kg/injection, schedule: Q04DX003 (ip), vehicle: other
  T/C: 193 % of control and 245 % of control
dose: 18.0 mg/kg/injection, schedule: Q01DX001 (ip), vehicle: other
  T/C: 165 % of control
dose: 18.0 mg/kg/injection, schedule: Q04DX003 (ip), vehicle: saline with Tween-80
  T/C: 191 % of control and 264 % of control
dose: 20.0 mg/kg/injection, schedule: Q01DX001 (ip), vehicle: saline with Tween-80
  T/C: 117 % of control
dose: 20.0 mg/kg/injection, schedule: Q04DX002 (ip), vehicle: clinical formulation
  T/C: 281 % of control
dose: 22.5 mg/kg/injection, schedule: Q04DX003 (ip), vehicle: saline with Tween-80
  T/C: 198 % of control
dose: 25.0 mg/kg/injection, schedule: Q04DX002 (oral), vehicle: other
  T/C: 120 % of control
dose: 25.0 mg/kg/injection, schedule: Q04DX003 (ip), vehicle: saline with Tween-80
  T/C: 161 % of control
dose: 30.0 mg/kg/injection, schedule: Q01DX001 (ip), vehicle: other
  T/C: 180 % of control
dose: 30.0 mg/kg/injection, schedule: Q01DX001 (ip), vehicle: saline with Tween-80
  T/C: 120 % of control
dose: 32.0 mg/kg/injection, schedule: Q04DX003 (oral), vehicle: other
  T/C: 172 % of control
dose: 40.0 mg/kg/injection, schedule: Q01DX001 (ip), vehicle: saline with Tween-80
  T/C: 228 % of control
dose: 40.0 mg/kg/injection, schedule: Q04DX003 (ip), vehicle: other
  T/C: 86 % of control
dose: 45.0 mg/kg/injection, schedule: Q04DX003 (ip), vehicle: saline with Tween-80
  T/C: 187 % of control and 222 % of control and 274 % of control
dose: 50.0 mg/kg/injection, schedule: Q01DX001 (ip), vehicle: saline with Tween-80
  T/C: 124 % of control
dose: 50.0 mg/kg/injection, schedule: Q04DX002 (oral), vehicle: other
  T/C: 151 % of control and 168 % of control
dose: 50.0 mg/kg/injection, schedule: Q04DX003 (oral), vehicle: other
  T/C: 91 % of control
dose: 60.0 mg/kg/injection, schedule: Q01DX001 (ip), vehicle: saline with Tween-80
  T/C: 252 % of control

## COc1ccc2c(c1OC)C(=O)N1C2=Cc2c(cc3c(c2OC)OCO3)CC1N(C)C (configuration not stated)
dose: 60.0 mg/kg/injection, schedule: Q01DX005 (ip), vehicle: saline
  T/C: 103 % of control
dose: 120.0 mg/kg/injection, schedule: Q01DX005 (ip), vehicle: saline
  T/C: 100 % of control

## CCN(CC)C(=S)n1c(=S)nc(N(CC)CC)sc1=S
dose: 6.25 mg/kg/injection, schedule: Q01DX005 (ip), vehicle: Klucel (hydroxypropylcellulose) (HPC)
  T/C: 109 % of control
dose: 12.5 mg/kg/injection, schedule: Q01DX005 (ip), vehicle: Klucel (hydroxypropylcellulose) (HPC)
  T/C: 98 % of control
dose: 25.0 mg/kg/injection, schedule: Q01DX005 (ip), vehicle: Klucel (hydroxypropylcellulose) (HPC)
  T/C: 108 % of control
